As usually defined, the IC50 is the point on the concentration scale where inhibition reaches its midpoint. One may read the Solubility as the concentration that dissolves in the medium under given conditions. In general, solubility refers to the dissolved amount per volume that the medium holds.

Counter-ions that a name gives are not always drawn. Like-named read-outs stand apart in the source and are kept apart here.

The values below come from patent publication US20240140941A1, “DERIVATIVE OF 2,5-DIKETOPIPERAZINE COMPOUND, AND PREPARATION METHOD THEREFOR, PHARMACEUTICAL COMPOSITION THEREOF AND USE THEREOF” (DALIAN WZ PROBIOTICS AD HEALTH CO., LTD, priority 2020, published 2024).

The test system of one series is HT-29. Briefly: Inhibition test on cell proliferation (MTT), HT-29. It is filed as cell-based, human. The following applies: 72 hours of drug treatment. In outline:
(§1)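 Cells plated at 2000-6000 per well, allowed to adhere for 24 h, then exposed to serially diluted compound for 72 h at 37 °C, 5% CO2. Viability read by MTT reduction, with formazan dissolved in DMSO and absorbance taken at 490 nm. Inhibition rate calculated relative to untreated and zero-setting wells.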

Series [1] in a line: Compound solubility experiment, Method 1: equilibrium solubility in pure water, LC-MS. The following applies: ultrapure water, 37±1° C., shaken 24 hours. It is filed as physicochemical. The method, then:
Method 1: A 1.5 mL brown EP tube was taken, about 1 mg of compound was weighed respectively, and 1 mL of ultrapure water was added thereto. The mixture was vortexed, and sonicated until the compound was no longer dissolved (the solution was turbid or had suspended particles). The mixture was put into an incubation shaker, maintained at a temperature of (37±1° C.), shaken at 100 r/min for 24 hours, so as to achieve full dissolution equilibrium. After 24 hours, the supernatant was quickly filtered through a 0.45 μm microporous membrane, and the initial filtrate was discarded. 200 μL of the renewed filtrate was taken and diluted with 200 μL of methanol. The assay was repeated at least three times. According to the chromatographic conditions, the sample was injected by LC-MS, and the peak area was measured and the equilibrium solubility of each 2,5-diketopiperazine derivative in pure water was calculated.

The subject of the next series is NCI-H460 cell line. In words: Cell apoptosis experiment (Annexin V/PI double staining, flow cytometer), NCI-H460. The following applies: for Proportion of late apoptotic cells / Proportion of early apoptotic cells: NCI-H460; for Proportion of late apoptotic cells: blank control 0.54%; for Proportion of early apoptotic cells: blank control 1.84%; for number of apoptosis: NCI-H460, in words. The class given is cell-based, human. The method, then: (§2) 1. Cell collection: The cell culture dish was taken out, the culture medium was washed with PBS, digested with EDTA-free trypsin, collected into a centrifuge tube. The number of cells per sample was about 1×10^6/mL, and the centrifuge tube was centrifuged at 800 r/min for 3 min, and the culture medium was discarded.
(§3) 2. The residue was washed twice with frozen PBS, centrifuged at 800 r/min for 3 min each time, and the supernatant was discarded.
(§4) 3. Blank group, single-stained group and double-stained group were set, and 100 μL of binding buffer was added thereto. 5 μL of FITC-annexin V and 5 μL of PI were chosen according to different groups, mixed gently, incubated at room temperature in the dark for 15 min, then 400 μL of binding buffer was added thereto, and the cells were gently mixed.
(§5) 4. After filtering the cell suspension with a 300-mesh nylon membrane, the cell suspension was detected by a flow cytometer.
In general terms: Flow cytometry measures light scatter and fluorescence of single cells or particles in a stream.

The subject of a further series is BxPC-3 cell line. In words: Cell apoptosis experiment (Annexin V/PI double staining, flow cytometer), BxPC-3. To be noted: for Proportion of late apoptotic cells / Proportion of early apoptotic cells: BxPC-3; for Proportion of late apoptotic cells: blank control 0.94%; for Proportion of early apoptotic cells: blank control 1.11%; for number of apoptosis: BxPC-3, in words. The class given is cell-based, human. How it is done: as §2, §3, §4, §5

The subject of the next series is HCC-LM3. In words: Inhibition test on cell proliferation (MTT), HCC-LM3. It is filed as cell-based, human. To be noted: 72 hours of drug treatment, MTT, read-out: IC50 (nM) HCC-LM3. In outline: as §1
Series [2] relates to β-tubulin. Briefly: Immunofluorescence experiment, BxPC-3 cell line. The following applies: for β-tubulin fluorescence value: BxPC-3 cell line, control 29873 ± 4013; for number of tubulin distributed radially: BxPC-3 cells, in words. The class given is cell-based, human. How it is done: (§6) 1. Cell membrane rupture: After the cover slip was shaken to slight dryness, a circle was drawn using a histochemical pen at the position where the cells were evenly distributed in the middle of the cover slip (to prevent the antibody from flowing away). 50 to 100 μL of membrane rupture working solution was added, and incubated at room temperature for 20 min, washed 3 times with PBS, 5 min each time.
(§7) 2. Serum blocking: BSA was added dropwise in the circle to evenly cover the tissue and block at room temperature for 30 min. (The primary antibody was from goat and blocked with 10% normal rabbit serum, and the primary antibody from other sources was blocked with 3% BSA)
(§8) 3. Adding the primary antibody: The blocking solution was shaken off gently, and the primary antibody was added dropwise in the cell well plate (prepared in a certain proportion using PBS), and the cell culture plate was placed flat in a humid box and incubated overnight at 4° C.
(§9) 4. Adding secondary antibody: PBS was added to the cell culture plate, placed on a decolorizing shaker, shaken and washed for 3 times, 5 min each time. After shaking to slight dryness, a secondary antibody corresponding to the species of the primary antibody in the histochemical kit was added dropwise in the circle to cover the tissue, and incubated at room temperature for 50 min.
(§10) 5. DAPI restaining nucleus: The cover slip was placed in PBS (pH 7.4), shaken and washed 3 times on the decolorizing shaker, 5 min each time. After the cover slip was shaken to slight dryness, DAPI staining solution was added dropwise in the circle, and incubated at room temperature for 10 min in the dark.
(§11) 6. Sealing the cover slip: The cover slip was placed in PBS (pH 7.4), shaken and washed 3 times on the decolorizing shaker, 5 min each time. After the cover slip was shaken to slight dryness, the cover slip was sealed with antifade mounting medium.
(§12) 7. Microscopic examination and photographing: The cover slip was observed under a fluorescent microscope and images were collected.

For another series, the system named is NCI-H460. In words: Inhibition test on cell proliferation (MTT), NCI-H460. The class given is cell-based, human. To be noted: 72 hours of drug treatment, MTT, read-out: IC50 (nM) NCI-H460. In outline:
as §1

Series [3] has as its system β-tubulin. Briefly: Immunofluorescence experiment, NCI-H460 cell line. It is filed as cell-based, human. The following applies: for β-tubulin fluorescence value: NCI-H460 cell line, control 20330 ± 1233; for number of tubulin distributed radially: NCI-H460 cells, in words. The method, then: as §6, §7, §8, §9, §10, §11, §12
A further series has as its system BxPC-3. Briefly: Inhibition test on cell proliferation (MTT), BxPC-3. The class given is cell-based, human. To be noted: 72 hours of drug treatment, MTT, read-out: IC50 (nM) BxPC-3. The method, boiled down: as §1
Series [4] can be described thus: Compound solubility experiment, Method 2: about 2 mg salt in 0.2 mL ultrapure water, dissolution observed. The class given is physicochemical. To be noted: 37 °C, thermodynamic from solid, salts, 37±1° C., shaken 24 hours. How it is done:
Method 2: A 0.5 mL brown EP tube was taken, about 2 mg of hydrochloride of derivatives of 2,5-diketopiperazine compounds was weighed respectively, and 0.2 mL of ultrapure water was added thereto. The mixture was vortexed, put into an incubation shaker, maintained at a temperature of (37±1° C.), shaken at 100 r/min for 24 hours, so as to achieve full dissolution equilibrium. The dissolution of the mixture was observed.

On to `CC(C)(C)c1[nH]cnc1/C=c1\[nH]c(=O)/c(=C/c2ccccc2)[nH]c1=O` [Plinabulin, reference compound], for which the IC50 in the series on HT-29 (Homo sapiens, HT-29, 72 h) amounted to 5.74 ± 0.73 nM; with HCC-LM3 (Homo sapiens, HCCLM3, 72 h), 8.31 ± 0.23 nM; in the series with NCI-H460 (Homo sapiens, NCI-H460, 72 h), 11.6 ± 0.96 nM; in the series on BxPC-3 (Homo sapiens, BXPC-3, 72 h), 5.41 ± 0.76 nM. Moreover, the Solubility in series [1] is under 0.00025 mg/mL. Moreover, the “Proportion of late apoptotic cells” value amounted to 5.18% in the series with NCI-H460 cell line and 3.85% with BxPC-3 cell line. Also, the results for the “Proportion of early apoptotic cells” value in the series on NCI-H460 cell line and in the series on BxPC-3 cell line were 1.90% and 1.66%, respectively. Moreover, the β-tubulin fluorescence value stood at 11000 in the series on β-tubulin [2] and 8133 with β-tubulin [3].

In the case of `O=C(c1ccc(F)cc1)c1cccc(/C=c2\[nH]c(=O)/c(=C/c3ncn(CCCN4CCOCC4)c3C3CC3)[nH]c2=O)c1` [PLN-2-3-1, (3Z,6Z)-3-(3-(p-Fluorobenzoyl)phenyl)methylene-6-((5-cyclopropyl-1-(3-morpholinyl)propylimidazol-4-yl)methylene)piperazine-2,5-dione, hydrochloride], in the series with NCI-H460 cell line, the number of apoptosis entry is recorded as “significantly increased”, the “Proportion of late apoptotic cells” value was 6.76% and the “Proportion of early apoptotic cells” value was determined as 3.08%. In addition, in the series with BxPC-3 cell line, the number of apoptosis result is listed as “significantly increased”, the “Proportion of late apoptotic cells” value was 5.83% and the “Proportion of early apoptotic cells” value came out at 2.75%. Moreover, in the series with β-tubulin [2], the β-tubulin fluorescence value was determined as 9000 and the “number of tubulin distributed radially” value is “significantly reduced”. Moreover, the IC50 in the series with NCI-H460 (hydrochloride) was 5.6 ± 0.41 nM. In the series on β-tubulin [3], the β-tubulin fluorescence value came to 7822 and the “number of tubulin distributed radially” value is given as “significantly reduced”. Moreover, the solubility at 24 h in series [4] is over 10 mg/mL.

In the case of `CC(C)c1c(/C=c2\[nH]c(=O)/c(=C/c3cccc(C(=O)c4ccc(F)cc4)c3)[nH]c2=O)ncn1CCCN1CCOCC1` [PLN-2-1-1, (3Z,6Z)-3-(3-(p-Fluorobenzoyl)phenyl)methylene-6-((5-isopropyl-1-(3-morpholinyl)propylimidazol-4-yl)methylene)piperazine-2,5-dione, hydrochloride], the concentration for half-maximal inhibition (IC50) amounted to 1.56 ± 0.47 nM in the series with HT-29 (hydrochloride), 2.04 ± 0.57 nM with HCC-LM3 (hydrochloride), 2.28 ± 1.24 nM with NCI-H460 (hydrochloride) and 1.77 ± 0.03 nM in the series on BxPC-3 (hydrochloride). Moreover, the number of apoptosis result in the series with NCI-H460 cell line and in the series on BxPC-3 cell line was “significantly increased” throughout. Further, the “Proportion of late apoptotic cells” value in the series with NCI-H460 cell line was found to be 9.70%; in the series on BxPC-3 cell line it was 6.79%. The results for the “Proportion of early apoptotic cells” value in the series with NCI-H460 cell line and in the series on BxPC-3 cell line were 3.55% and 3.82%, respectively. The β-tubulin fluorescence value in the series with β-tubulin [2] is 9533; in the series with β-tubulin [3] it was 5344. Moreover, the “number of tubulin distributed radially” value in the series on β-tubulin [2] and in the series on β-tubulin [3] was “significantly reduced” in each case. The solubility at 24 h in series [4] is over 10 mg/mL.
